# Data reported in patent US8329716B2, “Hetaryloxy-substituted phenylamino pyrimidines as Rho kinase inhibitors” (Bayer Intellectual Property GmbH, priority 2004, dated 2012).
# Tested on: isolated saphenous artery of rabbits
# Assay: Vessel-relaxing action in vitro, phenylephrine-induced contractions of isolated saphenous artery rings
# Conditions: Oryctolagus cuniculus; concentration reducing phenylephrine-induced contraction of rabbit saphenous artery rings by 50% of control
# Protocol: The inhibition of the enzyme is investigated in an in vitro assay with recombinant Rho kinase II. The vessel-relaxing action is determined using phenylephrine-induced contractions of isolated rings of the saphenous artery of rabbits.
# Vessel-Relaxing Action In Vitro
# Individual 3-mm-wide rings of the isolated saphenous artery of rabbits are introduced into 5 ml organ baths with Krebs-Henseleit solution (37° C., gassed with carbogen). The vessel tone is monitored isometrically and registered. Contractions are induced by addition of […] of phenylephrine/ml, which is washed out again after 4 min. After a number of control cycles, the rings are preincubated with the substance to be examined, with the dosage being increased for each further cycle, and the subsequent contraction is compared to the intensity of the last control contraction.
row,IC50,Compound
1,67 nM,"Cc1c[nH]c2nccc(Oc3c(F)cc(Nc4cc(Cl)nc(N)n4)cc3F)c12 [Example 1, 6-Chloro-N^4-{3,5-difluoro-4-[(3-methyl-1H-pyrrolo[2,3-b]pyridin-4-yl)oxy]phenyl}pyrimidine-2,4-diamine]"
2,19 nM,"N#Cc1c[nH]c2nccc(Oc3ccc(Nc4cc(C(F)(F)F)nc(N)n4)cc3F)c12 [Example 18, 4-(4-{[2-Amino-6-(trifluoromethyl)pyrimidin-4-yl]amino}-2-fluorophenoxy)-1H-pyrrolo[2,3-b]pyridin-3-carbonitrile]"
3,45 nM,"Nc1nc(Nc2ccc(Oc3ccnc4[nH]cc(Cl)c34)c(F)c2)cc(C(F)(F)F)n1 [Example 9, N^4-{4-[(3-Chloro-1H-pyrrolo[2,3-b]pyridin-4-yl)oxy]-3-fluorophenyl}-6-(trifluoromethyl)pyrimidine-2,4-diamine]"
